From patent US20260284016A1, “COMBINATIONS AND METHODS FOR ENHANCING CHECKPOINT INHIBITOR THERAPIES IN CANCER TREATMENT” (PURDUE RESEARCH FOUNDATION, priority 2004, published 2026)

Legend:
[1] = system: M2-induced THP-1 macrophages; test: Secreted CCL18 and IL-1β in THP-1 supernatants by ELISA; format: cell-based, human; conditions: low concentration range (0.1-10 nM), ELISA
Method: FIGS. 6A-6D show graphical data representative of various marker levels measured from M2-induced THP-1 macrophages treated with different concentrations of drugs for 48 hours (FIGS. 6A and 6B) or for 2 hours, then displaced with fresh medium and cultured for the remaining 46 hours (FIGS. 6C and 6D). In both cases, cell supernatants were collected and secreted CCL18 protein and IL-1β was detected by ELISA.
Further, to ensure that the above mRNA analyses accurately reflected the levels of anti-inflammatory cytokines produced by IL-4, IL-6 plus IL-13 stimulated THP-1 cells, the concentrations of CCL18 and IL-1β polypeptides in the THP-1 supernatants were quantitated by ELISA assay.
CCL18 and IL-1β were quantified in induced THP-1 cell supernatants using a human DuoSet ELISA Development System (R&D Systems Europe, Abingdon, UK: #DY394-05) and an IL-1 beta Human ELISA Kit (Thermo Fisher Scientific, Waltham, MA; #BMS224-2) as described by manufactures. BALF samples were analyzed for mouse IFN-γ using ELISA MAX™ Deluxe (Biolegend, San Diego, CA; #430804).
Additionally, cell supernatants were collected and secreted CCL18 protein was detected by ELISA.

[2] = system: M2-induced THP-1 macrophages; test: Reprogramming of M2-polarized THP-1 macrophages, marker mRNA by qPCR; format: cell-based, human; conditions: 2 hours with compound, qPCR
Method: THP-1 cells were seeded into 96-well plates at a density of 60,000 cells/well. Cells were differentiated into unpolarized macrophages by 48 hours incubation with 200 nM PMA followed by 24 hours incubation in fresh RPMI medium. […] Cultures were maintained at 37° C., in a humidified 5% CO2 incubator.
Total RNA was isolated from 1×10^5-2×10^5 macrophages using a Quick-RNA™ MicroPrep kit (Zymo Research, Irvine, CA) according to the manufacturer-recommended protocol. The RNA samples were then reverse-transcribed into cDNA using high-capacity cDNA reverse transcription kits (Applied Biosystems, Foster City, CA; #4368814), qPCR analyses were performed using the iTaq™ Universal SYBR Green SuperMix (Bio-Rad Laboratories GmbH, Hercules, CA; #1725121), iCycler thermocycler, and iCycler iQ 3.0 software (Bio-Rad Laboratories GmbH, Hercules, CA) to track the expression of markers characteristic of macrophage polarization states, IL-6, CXCL10, IFNα, IFN-γ and CD86 were used as markers for an M1 phenotype, while CCL18. CD206, CD163 and Arg1 were employed as markers for the M2 phenotype, IL-1β, PDGFβ, MMP9 and TIMP 3 were measured as indicators of an anti-inflammatory phenotype. IRAK-4 was used as an indicator of TLR7 stimulation. To control for specificity of the amplification products, a melting curve analysis was performed. […] Each sample was analyzed independently in triplicate for each marker.
In both data sets, the cells were harvested for gene analysis by qPCR.
Primarily, human monocytic (THP-1) cells were induced to the M2-like phenotype using the methods and materials previously described. In particular, THP-1 cells were seeded into 96-well plates at a density of 60,000 cells/well. Cells were differentiated into unpolarized macrophages by 48 h incubation with 200 nM PMA followed by 24 hours incubation in fresh RPMI medium. The resulting macrophages were polarized to an M2-like phenotype by incubation with […] IL-4, 20 ng/ml […], and 5 ng/mL IL-6 for 48h. Cultures were maintained at 37° C. in a humidified 5% CO2 incubator.
In addition to the nonconjugated TLR7 agonist, conjugated compounds of the present disclosure were likewise evaluated. Human THP-1 cells were induced to macrophages having the M2-like phenotype per the methods set forth herein (e.g., using 20 ng/mL IL-4, 20 ng/mL IL-13, 5 ng/mL IL-6), then reprogrammed with different nM concentrations of various compounds of the present disclosure for 2 hours; namely, a nonconjugated (free drug) TLR7 agonist compound having formula I and/or II (data shown collectively as Compound 3A), a folate-conjugated TLR7 agonist compound having formula XV (having a releasable linker) (e.g., Compound 3B), a folate-conjugated TLR7 agonist compound having formula XVII (having a non-releasable linker) (e.g., Compound 3C), and a folate-conjugated TLR7 agonist compound having formula XVI (having a non-releasable linker) (e.g., Compound 3D). The cells were subsequently harvested for gene analysis by qPCR and the relative expression of CCL18 (FIG. 14A), CD206 (FIG. 14B), and IL-1β (FIG. 14C) analyzed.

BM-induced mice = system: BM-induced mice
Method: Studies were also performed to determine if macrophages in pulmonary fibrotic lungs might be specifically targeted with folate-linked drugs in vivo. […] (The BM model is widely regarded to be helpful in terms of enabling mechanistic investigations relevant to fibrogenesis in an in vivo context.)
More specifically, eight-week-old C57BL6 male mice from Charles River (average weight 22 g to 25 g) were housed under pathogen-free conditions at room temperature (22° C.) under a 12 hours light-dark cycle. Mice were placed on a folate deficient chow (Envigo Teklad Global Rat Food Pellets) for 1 week prior to the BM or PBS instillation. Fresh water and folate-deficient diet were freely available. All animal procedures were approved by the Purdue Animal Care and Use Committee in accordance with National Institute of Health guidelines.
Thereafter, the mice were anesthetized with ketamine/xylazine and the necks of the mice were shaved using hair remover lotion and then sterilized with 70% alcohol. A small incision was made on the neck to visualize the trachea. Mice were positioned at a 75-degree angle and injected intratracheally with 100 μL sterile PBS or BM (Cayman Chemicals, Ann Arbor, MI; #13877) dissolved in PBS (0.75 mg/kg) using a 1 cc syringe with 26 G needle. Body weights were monitored every other day throughout the experiment.
Lobes of the right lung collected above were weighed, placed in a pressure-tight vial (Supelco Inc., Bellefonte, PA; #27003), and hydrolyzed with 6N HCl (10 ml/g, v/w) in a sand bath at 120° C., for 3.5 hours. The hydrolyzed solution was cooled at 4° C., for 15 min and transferred to a 1.5 ml Eppendorf tube prior to centrifugation at 12,000 rcf for 15 min at 4° C. Supernatant was carefully collected, aliquoted and used for hydroxyproline (HYP) analysis.
For the subsequent HYP analysis, 10 μl of sample was transferred into a 96-well plate and neutralized with 10 μl of 5.3 M sodium hydroxide solution. Isopropanol ([…]) was then added to each well followed by 20 μl of oxidation buffer and the mixture was incubated on a shaker at room temperature for 5 min. Analytical reagent (260 μl) was added, and the plate was incubated on a shaker at room temperature for 30 seconds and incubated immediately at 60° C., for 25 min. The absorbance was measured at 560 nm (A560) within 15 min. All reagents were prepared according to a previously reported protocol.
For histological analysis of the lung sections, fixed lungs (see above) were embedded in paraffin, sectioned and stained with hematoxylin-eosin (H&E), Masson's trichrome or F3 (anti-mouse FRβ antibody). Tissue sections were examined in a blinded manner by a licensed pathologist. More than 90×10^6 cells were quantified per section using Aperio-Image Scope (Leica Biosystems, Wetzlar, DE).
For this, BM-treated mice were intravenously injected every other day beginning on day 10 with either vehicle (3% DMSO in PBS) or Compound 1B (see FIG. 8A). […] In BM-induced experimental pulmonary fibrosis in mice, inflammation is known to persist for about 9-10 days after BM installation. Because, inflammation to fibrosis switch happens in this model approximately day 9 to day 14, and anti-inflammatory markers start appearing at about day 10, dosing began on day 10 (FIG. 8A).
Two doses were given every other day till day 21. The individual doses on a day are separated by 6 hours to prevent any “tolerance” to TLR agonists. Mice were then sacrificed on day 21 and subjected immediately to bronchoalveolar lavage followed by resection of the lungs for immunohistochemistry and quantitation of collagen and hydroxyproline.

FRβ positive macrophages = test: In vivo folate receptor labeling with OTL38, flow cytometry of digested lungs; parameters: species or system C57BL/6 mice; conditions: fibrotic mice
Method: (§1) To evaluate if anti-inflammatory lung macrophages in these mice can be specifically targeted with folate-linked drugs, 10 days after the instillation, 10 nmol (for in vivo imaging) or 100 nmol (for in vivo labeling) of a folate-linked, near infrared fluorescent dye (OTL38) with or without 200-fold excess of FA-glucosamine (a competitor of OTL38) was injected into the tail veins of BM-treated mice and the dye uptake in the major organs was evaluated.
Finally, for the in vivo folate imaging studies, major organs (heart, lung, spleen, liver, small intestine, large intestine, and kidney) were resected and imaged using an AMI live imager (Spectral Instruments Imaging, Tucson, AZ). For in vivo folate receptor labeling studies, lungs of the mice were harvested immediately following euthanasia, digested with a lung dissociation kit (Miltenyi Biotec, Bergisch Gladbach, DE; #130-098-427) as described by gentleMACS Octo Dissociator with Heathers (Miltenyi Biotec, Bergisch Gladbach, DE; #130-096-427) as described by manual and filtered through a 70 μm cell strainer (Miltenyi Biotec, Bergisch Gladbach, DE: #130-098-462). […] Labeled macrophages were then washed twice in PBS, stained with 7AAD (viability stain) for 15 min and analyzed by flow cytometry using BD Accuri C6 Software (BD Biosciences, San Jose, CA). […]

[3] = system: FRβ-expressing macrophages; test: In vivo folate imaging with OTL38, resected organs; parameters: species or system C57BL/6 mice
Method: as §1
Finally, for the in vivo folate imaging studies, major organs (heart, lung, spleen, liver, small intestine, large intestine, and kidney) were resected and imaged using an AMI live imager (Spectral Instruments Imaging, Tucson, AZ). For in vivo folate receptor labeling studies, lungs of the mice were harvested immediately following euthanasia, digested with a lung dissociation kit (Miltenyi Biotec, Bergisch Gladbach, DE; #130-098-427) as described by gentleMACS Octo Dissociator with Heathers (Miltenyi Biotec, Bergisch Gladbach, DE; #130-096-427) as described by manual and filtered through a 70 μm cell strainer (Miltenyi Biotec, Bergisch Gladbach, DE: #130-098-462). Cells collected in the filtrate were depleted of erythrocytes by ammonium […] lysis, washed 2× in cold PBS and labeled for 30 min on ice with antibodies to desired macrophage markers (FITC-CD11b, Biolegend, San Diego, CA; #101205; FE-F4/80. Biolegend. San Diego, CA: #123109). Labeled macrophages were then washed twice in PBS, stained with 7AAD (viability stain) for 15 min and analyzed by flow cytometry using BD Accuri C6 Software (BD Biosciences, San Jose, CA).
FIGS. 7C and 7D show FRβ IHC staining of human IPF lung tissue (FIG. 7C) and healthy human lung tissue (FIG. 7D). […] After 2 hours, mice were sacrificed prior to analysis. […] For in vivo folate receptor labeling studies, lungs of the mice were harvested immediately following euthanasia, digested and then labeled with antibodies to desired macrophages markers (FITC-CD11b, PE-F4/80) and 7AAD (live/dead staining) and analyzed by flow cytometry.

Row | Molecule | secretion of CCL18 protein [1] | CCL18 relative expression [2] | CD206 relative expression [2] | IL-1β relative expression [2] | reduction of anti-inflammatory markers relative to the other compounds [2] | also measured
1 | Nc1nc(C(F)(F)F)cc2c1[nH]c(=O)n2Cc1ccc(NCCN2CCCC(CO)C2)nc1 (stereo not drawn) [Compound 3A] | downregulated |  |  |  |  | 
2 | Nc1nc2ncc(CNc3ccc(C(=O)NC(CCC(=O)N[C@@H](CSSCCOC(=O)OCC4CCCN(CCNc5ccc(Cn6c(=O)[nH]c7c(N)nc(C(F)(F)F)cc76)cn5)C4)C(=O)O)C(=O)O)cc3)nc2c(=O)[nH]1 (stereo partly drawn) [Compound 3B] | downregulated | reduced | reduced | reduced |  | 
3 | Nc1nc2ncc(CNc3ccc(C(=O)N[C@@H](CCC(=O)NCCOCCOCCOCCOCCOCCOCCOCCOCCOCCOCCOCCOCCOCC4CCCN(CCNc5ccc(Cn6c(=O)[nH]c7c(N)nc(C(F)(F)F)cc76)cn5)C4)C(=O)O)cc3)nc2c(=O)[nH]1 (stereo partly drawn) [Compound 3C] | downregulated | reduced | reduced | reduced | most effective | benefit to the subject mice (BM-induced mice; 3 nmol dosage): did not show measurable benefit; hydroxyproline (HP) (BM-induced mice; 10 nmol dosage): decreasing; number of BALF cells (BM-induced mice; 10 nmol dosage): decreasing; survival rates (BM-induced mice; 10 nmol dosage): increased the survival rates
4 | Nc1nc2ncc(CNc3ccc(C(=O)N[C@@H](CCC(=O)NCCOCCOCCOCCOCC4CCCN(CCNc5ccc(Cn6c(=O)[nH]c7c(N)nc(C(F)(F)F)cc76)cn5)C4)C(=O)O)cc3)nc2c(=O)[nH]1 (stereo partly drawn) [Compound 3D] | downregulated | reduced | reduced | reduced | most effective | 
5 | OTL38 |  |  |  |  |  | macrophage-like cells with folate-targeted dye retention (FRβ positive macrophages; 100 nmol OTL38): about 22%; folate-dye retention under competition (FRβ positive macrophages; 100 nmol OTL38 with 200-fold excess folate-glucosamine): blocked essentially all folate-dye retention; OTL38 accumulation in organs ([3]; BM-treated mice, day 10, 10 nmol tail vein, 2 h): pronounced accumulation in the fibrotic lungs; lung accumulation under competition ([3]; BM-treated mice, with 200-fold excess folate-glucosamine): nearly quantitative blockade of lung accumulation; OTL38 fluorescence in organs ([3]; healthy mice, 10 nmol tail vein, 2 h): only observed in the kidneys of healthy mice
